The target in series [1] is T1, human CB2R (Homo sapiens, UniProt P34972). The experiment in a line: cAMP Hunter assay, effect on NKH-477-induced cAMP levels (agonist mode). The format is cell-based. Conditions: for Effect on NKH-477-induced cAMP levels (functional behavior): CHO-K1 cells overexpressing human CB2R, compound alone; for EC50: stable CHO cells expressing the human CB2, read-out: EC50, reduction of NKH-477-induced cAMP levels. On the procedure:
The above-mentioned compounds were tested for their functional activity.
Gi-coupled cAMP modulation was measured following the manufacturer’s protocol (Eurofins, Fremont, CA, USA), as previously reported. Briefly, CHO-K1 cells overexpressing the human CB2R were plated into a 96-well plate (10,000 cells/well) and incubated overnight at 37 °C, 5% CO2. Media was aspirated and replaced with 30 μL of assay buffer. Cells were incubated for 30 min at 37 °C with 15 μL of 3× dose−response solutions of samples prepared in the presence of a cell assay buffer containing 3× of 25 μM NKH-477 solution to stimulate adenylate cyclase and enhance basal cAMP levels. For those compounds not showing a decrease in cAMP levels, the effect upon receptor activation in the presence of the JWH-133 selective agonist was investigated. Cells were pre-incubated with samples (15 min at 37 °C at 6× the final desired concentration), followed by 30 min incubation with the JWH-133 agonist challenge at the EC80 concentration (EC80 = 4 μM, previously determined in separate experiments) in the presence of NKH-477 to stimulate adenylate cyclase and enhance cAMP levels. Cell lysis and cAMP detection were performed as per the manufacturer’s protocol. Luminescence measurements were performed using a GloMax Multi Detection System (Promega, Italy). Data are reported as the means ± SEM of three independent experiments conducted in triplicate and were normalized considering the NKH-477 stimulus alone as 100% of the response. Data were analyzed using PRISM.9.3 software (GraphPad Software Inc, San Diego, CA, USA).
Figure 7 Concentration-response curves of compounds in the cAMP Hunter assay. Curves show the effect of increasing concentrations of compounds on NKH-477-induced cAMP levels in stable CHO cells expressing the human CB2. Data are reported as the means ± SEM of three independent experiments conducted in triplicate, normalized to the maximal and minimal responses.
(In general: cAMP levels reflect the balance of adenylyl cyclase and phosphodiesterase activity.)

The target in a further series is T2, human recombinant CB1R (Homo sapiens, UniProt P21554).
T2 construct: purchased Perkin-Elmer, Italy; host or cells: HEK-293 cells (membranes)
In words: Competition binding assay, displacement of [3H]-CP-55,940 from membranes of HEK-293 cells overexpressing CB1R. Conditions: for Ki: [3H]-CP-55,940 displacement, HEK-293 membranes, 90 min at 30 °C, Cheng-Prusoff, read-out: Ki hCB1R (µM ± S.E.); for inhibition at 10 µM / inhibition at 25 µM: read-out: % Displacement/ Max. Conc. Tested, hCB1R. Here is the method: (§1) The binding affinities (Ki values) of the compounds for human recombinant hCB1R and hCB2R were determined as previously described, using SR144528 as a reference compound [30], and are reported in Table 1.
(§2) Compound affinity for CB1R and CB2R was measured as previously reported. […] Competition curves were performed by displacing [^3H]-CP-55 940 with increasing concentrations of compounds (0.1 nM–10 or 25 μM). […] All compounds were tested following the procedure described by the manufacturer (Perkin-Elmer, Italy). Displacement curves were generated by incubating drugs with [^3H]-CP-55 940 for 90 min at 30 °C. Ki values were calculated by applying the Cheng−Prusoff equation to the IC50 values for the displacement of the bound radioligand by increasing concentrations of the test compound. Data represent the mean values of three independent experiments performed in duplicate and are expressed as the average of Ki (µM) ± standard deviation. Data were analyzed using PRISM.9.3 software (GraphPad Software Inc, San Diego, CA, USA).
(In general: In a radioligand displacement assay an active substance lowers the binding of a labelled ligand.)

In series [2] the target is T1, human CB2R. The experiment in a line: Competition binding assay, displacement of [3H]-CP-55,940 from membranes of HEK-293 cells overexpressing CB2R. The arrangement: purchased Perkin-Elmer, Italy; host or cells: HEK-293 cells (membranes). Conditions: for Ki: [3H]-CP-55,940 displacement, HEK-293 membranes, 90 min at 30 °C, Cheng-Prusoff, read-out: Ki hCB2R (µM ± S.E.); for inhibition at 25 µM: max conc. tested 25 µM; for inhibition at 25 µM / inhibition at 10 µM: read-out: % Displacement/ Max Conc. Tested, hCB2R (converted); for inhibition at 10 µM: max conc. tested 10 µM. On the procedure:
as §1, §2

Series [3] in a line: Maximum concentration reached in the functional assay buffer, by UV absorption and HPLC. The format is physicochemical. The settings on record: measured by UV absorption and HPLC. On the procedure: (§3) Only a small displacement was observed and only at the highest concentration (Figure 8). We reasoned that the discrepancy with the predictions was mainly due to the chemical–physical features of the molecule and that the lack of antagonism was caused by issues related to compound solubility in the buffer used for the assay. Indeed, the maximum concentration of 12b that could be reached in the buffer solution used for the functional assay, measured by UV absorption as well as by HPLC, was 2.3 µM.

Series [4] deals with T1, human CB2R. In words: cAMP Hunter assay in the presence of JWH-133 agonist challenge (antagonist mode). It is filed as cell-based. Conditions: for Antagonism of JWH-133-induced inhibition of NKH-477-induced cAMP formation: JWH-133 4 µM (EC80) agonist challenge. On the procedure:
as §3

SMILES strings stand for the structures.

These results are taken from publication PMC9738591, “N-[1,3-Dialkyl(aryl)-2-oxoimidazolidin-4-ylidene]-aryl(alkyl)sulphonamides as Novel Selective Human Cannabinoid Type 2 Receptor (hCB2R) Ligands; Insights into the Mechanism of Receptor Activation/Deactivation” (Molecules, 2022).

T2 sequence (P21554 whole entry): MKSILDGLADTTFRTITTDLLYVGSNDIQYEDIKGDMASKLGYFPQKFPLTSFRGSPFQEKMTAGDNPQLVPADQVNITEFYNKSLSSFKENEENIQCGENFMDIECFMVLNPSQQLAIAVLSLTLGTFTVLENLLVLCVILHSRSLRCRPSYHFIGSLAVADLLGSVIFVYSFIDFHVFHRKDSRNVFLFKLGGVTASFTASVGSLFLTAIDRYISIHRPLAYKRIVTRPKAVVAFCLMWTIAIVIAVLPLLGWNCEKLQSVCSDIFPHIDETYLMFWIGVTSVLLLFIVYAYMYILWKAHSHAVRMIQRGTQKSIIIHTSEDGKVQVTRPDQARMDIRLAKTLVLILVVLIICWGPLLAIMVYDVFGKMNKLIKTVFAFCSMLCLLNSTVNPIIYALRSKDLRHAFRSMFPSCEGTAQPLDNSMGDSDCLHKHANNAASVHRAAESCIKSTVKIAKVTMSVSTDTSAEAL
T1 sequence (P34972 whole entry): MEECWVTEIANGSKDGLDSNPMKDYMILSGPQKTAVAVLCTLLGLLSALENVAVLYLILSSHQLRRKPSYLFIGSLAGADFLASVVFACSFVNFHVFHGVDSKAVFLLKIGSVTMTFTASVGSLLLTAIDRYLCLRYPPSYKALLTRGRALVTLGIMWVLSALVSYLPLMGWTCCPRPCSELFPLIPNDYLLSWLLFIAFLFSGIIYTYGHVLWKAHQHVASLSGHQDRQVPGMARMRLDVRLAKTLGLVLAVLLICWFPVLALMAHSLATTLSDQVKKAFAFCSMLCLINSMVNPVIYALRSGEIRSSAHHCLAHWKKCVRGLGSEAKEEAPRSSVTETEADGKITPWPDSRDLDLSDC

For orientation: EC50 means the concentration at which the effect is half-maximal. In general, Ki refers to the equilibrium dissociation constant of an inhibitor or competing ligand from its target. For orientation: melting point means the temperature of the solid-liquid transition. Molecule `CC(C)(C)N1CC(=NS(=O)(=O)c2ccccc2)N(CC2CC2)C1=O` [Compound 10b, N-[1-tert-Butyl-3-cyclopropylmethyl-2-oxoimidazolidin-4-ylidene]benzenesulfonamide] gave a melting point of 114.5 to 115 °C. In addition, at human CB2R [1], the “Effect on NKH-477-induced cAMP levels (functional behavior)” value (from here on “Effect on NKH-477-induced cAMP levels”) is “typical agonist behavior” and the concentration giving a half-maximal response (EC50) is 1260 nM. On human recombinant CB1R, the Ki was > 10 µM and the inhibition at 10 µM worked out at 10.5%. On human CB2R [2], the inhibition constant (Ki) is 1.67 ± 0.16 µM and the inhibition at 25 µM was 73%.
For `CC(C)(C)N1CC(=NS(=O)(=O)c2cccc(Br)c2)N(CC2CC2)C1=O` [Compound 10e, 3-Bromo-N-[1-tert-Butyl-3-cyclopropylmethyl-2-oxoimidazolidin-4-ylidene]benzenesulfonamide], the melting point lay within 114 to 115 °C. Besides, on human CB2R [1], the “Effect on NKH-477-induced cAMP levels” value was “typical agonist behavior” and the EC50 came to 264 nM. On human recombinant CB1R, the Ki is > 10 µM and the inhibition at 10 µM came to 10.8%. Besides, at human CB2R [2], the Ki was determined as 0.34 ± 0.08 µM and the inhibition at 10 µM is 83.5%.
As to `CS(=O)(=O)N=C1CN(C23CC4CC(CC(C4)C2)C3)C(=O)N1CC1CC1` [Compound 12a, N-[1-Adamant-1-yl-3-cyclopropylmethyl-2-oxoimidazolidin-4-ylidene]methanesulfonamide], the melting point fell in the range of 199.5 to 200 °C. Besides, on human CB2R [1], the “Effect on NKH-477-induced cAMP levels” value was “typical agonist behavior” and the concentration for a half-maximal effect (EC50) was 2140 nM. For the same molecule, at human recombinant CB1R, the inhibition constant (Ki) came to 0.21 ± 0.004 µM and the inhibition at 25 µM is 76.5%. On human CB2R [2], the Ki was 0.28 ± 0.05 µM and the inhibition at 25 µM was 76.5%.
In the case of `O=C1N(CC2CC2)C(=NS(=O)(=O)c2ccccc2)CN1C12CC3CC(CC(C3)C1)C2` [Compound 12b, N-[1-Adamant-1-yl-3-cyclopropylmethyl-2-oxoimidazolidin-4-ylidene]benzenesulfonamide], the melting point fell in the range of 198 to 198.5 °C. Besides, the “Maximum concentration that could be reached in the buffer solution used for the functional assay” value in series [3] was determined as 2.3 µM. The “Antagonism of JWH-133-induced inhibition of NKH-477-induced cAMP formation” value at human CB2R [4] is recorded as “did not antagonize the agonist challenge”. In addition, the “Effect on NKH-477-induced cAMP levels” value at human CB2R [1] is “did not alter the level of cAMP”. At human recombinant CB1R, the inhibition constant Ki is > 10 µM and the inhibition at 25 µM is 29.5%. On human CB2R [2], the Ki worked out at 0.26 ± 0.03 µM and the inhibition at 25 µM is 84.5%.
In turn, `O=C1N(CC2CC2)C(=NS(=O)(=O)c2cccc(Br)c2)CN1C12CC3CC(CC(C3)C1)C2` [Compound 12e, N-[1-Adamant-1-yl-3-cyclopropylmethyl-2-oxoimidazolidin-4-ylidene]-3-bromo-1-benzenesulfonamide] showed a melting point of 138 to 138.5 °C. Besides, the “Antagonism of JWH-133-induced inhibition of NKH-477-induced cAMP formation” value at human CB2R [4] is recorded as “fully antagonize”. Also, the “Effect on NKH-477-induced cAMP levels” value at human CB2R [1] was “did not alter the level of cAMP”. Also, on human recombinant CB1R, the inhibition constant (Ki) was > 10 µM and the inhibition at 10 µM amounted to 5.07%. For the same molecule, at human CB2R [2], the Ki turned out to be 0.16 ± 0.03 µM and the inhibition at 10 µM was 71.4%.
Turning to `CCCC(C)(C)c1ccc2c(c1)OC(C)(C)[C@@H]1CC=C(C)C[C@@H]21` [JWH-133, reference compound], at human CB2R [4] (previously determined in separate experiments), the “EC80 concentration of agonist challenge” value is 4000 nM.
